From patent US5407940A, “New ellipticine compounds” (priority 1992, dated 1995)
Like-named read-outs stand apart in the source and are kept apart here.

Experiments:
S1/tMDR [1] = test: cells; conditions: Homo sapiens, 96 h, read-out: Cytotoxicity IC50, resistant S1/tMDR
S1 = test: Cytotoxicity, sensitive line S1; assay type: cell-based; conditions: Homo sapiens, 96 h, read-out: Cytotoxicity IC50, sensitive S1
Text: (§1) The cells are distributed on microplates and exposed to the cytotoxic compounds.

KB-3-1 = test: Cytotoxicity, sensitive line KB-3-1; assay type: cell-based; conditions: Homo sapiens, KB 3-1, 96 h, read-out: Cytotoxicity IC50, sensitive KB-3-1
Text: as §1

KB-A1 [2] = tested on: KB-A1
leukaemia P388 [3] = test: Anti-tumour activity against leukaemia P388 in vivo; conditions: for Survivors on d60/total no. of mice / T/C: intraperitoneal, day 1; for cures, treated mice (comparators): reference compounds, dose not given
KB-A1 [4] = test: cells; conditions: Homo sapiens, KB-A1, 96 h, read-out: Cytotoxicity IC50, resistant KB-A1
[5] = tested on: Lewis pulmonary carcinoma; test: Anti-tumour activity against Lewis pulmonary carcinoma; assay type: in vivo, female B6D2F1 mice; conditions: for Survivors on d90 / median T/C (survival) / median T/C (volume) d20: i.v., d3, d6, d9; for activity against this very resistant model (in words): adriamycin at the maximum tolerated dose
P388 = test: Cytotoxicity, sensitive line P388 (Microculture Tetrazolium Assay); assay type: cell-based, murine; conditions: Mus musculus, P388, 48 h, read-out: Cytotoxicity IC50, sensitive P388
Text: as §1

colon 38 = test: Anti-tumour activity against colon 38; assay type: in vivo, female B6D2F1 mice; conditions: i.v., d2 and d9, d25
Protocol: Colon 38 (supplied by NCI, Frederick, USA) was inserted in the form of fragments by the subcutaneous route into female B6D2F1 mice. The compounds were administered by the i.v. route on d2 and d9 and the anti-tumour activity was determined on […] by measuring the tumour volume (T/C volume, %).

L1210 = test: Cytotoxicity, line L1210 (Microculture Tetrazolium Assay); assay type: cell-based, murine; conditions: for IC50: Mus musculus, L1210, 48 h, read-out: Cytotoxicity IC50, line L1210
Text: as §1

M5076 sarcoma = test: Anti-tumour activity against M5076 sarcoma; assay type: in vivo, female B6D2F1 mice; conditions: for Survivors on d90 / median T/C (survival): i.p., d1, d5, d9, d13
Protocol: (§2) M5076 sarcoma is supplied by NCI (Frederick, USA). The tumour cells (10^7 cells/animal) were inoculated on d0 into the peritoneal cavity of female B6D2F1 mice. The compounds were administered by the i.p. route on d1, d5, d9 and d13 at the doses indicated. The surviving animals on d90 were recorded and the T/C survival (%) was calculated.

P388/VCR-20 [6] = tested on: P388/VCR-20
P388/VCR-20 [7] = test: cells; conditions: Mus musculus, P388, 48 h, read-out: Cytotoxicity IC50, resistant P388/VCR-20
S1/tMDR [8] = tested on: S1/tMDR
[9] = Anti-tumour activity against M5076 sarcoma; assay type: in vivo, female B6D2F1 mice; conditions: mouse, in vivo, ip; read-out: maximum tolerated dose
Protocol: as §2

leukaemia P388 [10] = conditions: mouse, in vivo
[11] = maximum tolerated dose (2 mg/kg)

In the case of `Cc1c2ccnc(C(=O)NCCN(C)C)c2cc2c3cc(O)ccc3n(C)c12` [Example 1, 1-(N,N-Dimethylaminoethylaminocarbonyl)-5,6-dimethyl-9-hydroxy-6H-pyrido[4,3-b]carbazole], the IC50 (S1/tMDR [1]) is reported as 0.025 µM, the IC50 (S1; 4 days incubation) is reported as 0.049 µM and the IC50 (KB-3-1; 4 days incubation) is reported as 0.012 µM. The resistance factor (KB-A1 [2]; KB-A1 vs KB-3-1) was 10, the “Survivors on d60/total no. of mice” value (leukaemia P388 [3]; 5 mg/kg) was 1/10 and the T/C (leukaemia P388 [3]; 5 mg/kg) was 163%. For the same molecule, the “Survivors on d60/total no. of mice” value (leukaemia P388 [3]; 10 mg/kg) was 1/10, the T/C (leukaemia P388 [3]; 10 mg/kg) was 183% and the “Survivors on d60/total no. of mice” value (leukaemia P388 [3]; 20 mg/kg) was 2/10. For the same molecule, the T/C (leukaemia P388 [3]; 20 mg/kg) was 220%, the “Survivors on d60/total no. of mice” value (leukaemia P388 [3]; 30 mg/kg) was 3/10 and the T/C (leukaemia P388 [3]; 30 mg/kg) was 200%. For the same molecule, the “Survivors on d60/total no. of mice” value (leukaemia P388 [3]; 60 mg/kg) was 3/10, the T/C (leukaemia P388 [3]; 60 mg/kg) was 257% and the “long-term survivors over all doses employed” value (leukaemia P388 [3]; all doses employed) was “all the doses employed giving long-term survivors”. For the same molecule, the “cures, treated mice” value (leukaemia P388 [3]; single administration of 30 mg/kg) was 7 out of 10, the IC50 (KB-A1 [4]) was 0.12 µM and the “Survivors on d90” value ([5]; 20 mg/kg) was 6/10. For the same molecule, the “median T/C (survival)” value ([5]; 20 mg/kg) was over 300%, the “median T/C (volume) d20” value ([5]; 20 mg/kg) was 1% and the “curative for % of the animals” value ([5]; 40 mg/kg) was 100%. For the same molecule, the “Survivors on d90” value ([5]; 40 mg/kg) was 10/10, the “median T/C (survival)” value ([5]; 40 mg/kg) was over 300% and the “median T/C (volume) d20” value ([5]; 40 mg/kg) was 0%. The “Survivors on d90” value ([5]; 60 mg/kg) was 6/10, the “median T/C (survival)” value ([5]; 60 mg/kg) was over 300% and the “median T/C (volume) d20” value ([5]; 60 mg/kg) was 0%. The “activity against this very resistant model (in words)” value [5] was “very active”, the IC50 (P388; 2 days incubation) was 0.005 µM and the “median T/C (tumour volume)” value (colon 38; 20 mg/kg) was 41%. For the same molecule, the “median T/C (tumour volume)” value (colon 38; 40 mg/kg) was 16%, the “median T/C (tumour volume)” value (colon 38; 60 mg/kg) was 0% and the “times more cytotoxic than adriamycin” value (L1210; L1210) was “approximately 9 times”. The “times more cytotoxic than elliptinium acetate” value (L1210; L1210) was about 46 times, the IC50 (L1210; 2 days incubation) was 0.0026 µM and the “Survivors on d90” value (M5076 sarcoma; 5 mg/kg) was 0/10. The “median T/C (survival)” value (M5076 sarcoma; 5 mg/kg) was 168%, the “Survivors on d90” value (M5076 sarcoma; 10 mg/kg) was 4/10 and the “median T/C (survival)” value (M5076 sarcoma; 10 mg/kg) was 301%. For the same molecule, the “activity against that tumour (in words)” value (M5076 sarcoma; 20 mg/kg) was “very active”, the “Survivors on d90” value (M5076 sarcoma; 20 mg/kg) was 6/10 and the “median T/C (survival)” value (M5076 sarcoma; 20 mg/kg) was over 352%. The resistance factor (P388/VCR-20 [6]; P388/VCR-20 vs P388) was 0,8, the “sensitivity of resistant line P388/VCR-20 relative to corresponding sensitive line” value (P388/VCR-20 [6]; vs P388) was “more sensitive” and the IC50 (P388/VCR-20 [7]) was 0.004 µM. The resistance factor (S1/tMDR [8]; S1/tMDR vs S1) was 0,5 and the “sensitivity of resistant line S1/tMDR relative to corresponding sensitive line” value (S1/tMDR [8]; vs S1) was “more sensitive”.

For `Cc1c2cc[n+](C)cc2c(C)c2c1[nH]c1ccc(O)cc12` [elliptinium acetate, reference compound], the IC50 (KB-3-1) was 0.226 µM, the resistance factor (KB-A1 [2]) was 19 and the “Survivors on d60/total no. of mice” value (leukaemia P388 [3]; 5 mg/kg) was 0/10. The T/C (leukaemia P388 [3]; 5 mg/kg) was 171%, the gravimetric variation (leukaemia P388 [3]; at the optimum dose used, equitoxic doses) was -4 g and the “toxic at dose and above” value (leukaemia P388 [3]; mouse, in vivo) was at least 5 mg/kg. The “cures, treated mice (comparators)” value (leukaemia P388 [3]) was “none”, the IC50 (KB-A1 [4]) was 4.32 µM and the IC50 (L1210) was 0.139 µM. For the same molecule, the “Survivors on d90” value (M5076 sarcoma; 1 mg/kg) was 1/10, the “median T/C (survival)” value (M5076 sarcoma; 1 mg/kg) was 153% and the “Survivors on d90” value (M5076 sarcoma; 2 mg/kg) was 0/10. For the same molecule, the “median T/C (survival)” value (M5076 sarcoma; 2 mg/kg) was 180%, the “activity against that tumour (in words)” value (M5076 sarcoma; [11]) was “not very active” and the “survivors” value (M5076 sarcoma; [11]) was “no animal has survived”. The MTD [9] was 2 mg/kg.

For `COc1cccc2c1C(=O)c1c(O)c3c(c(O)c1C2=O)C[C@@](O)(C(=O)CO)C[C@@H]3O[C@H]1C[C@H](N)[C@H](O)[C@H](C)O1` [ADR, adriamycin, reference compound], the IC50 (S1) was 0.036 µM, the IC50 (KB-3-1) was 0.005 µM and the “Survivors on d60/total no. of mice” value (leukaemia P388 [3]; 10 mg/kg) was 2/10. For the same molecule, the T/C (leukaemia P388 [3]; 10 mg/kg) was 290%, the “cures, treated mice (comparators)” value (leukaemia P388 [3]) was 2 and the IC50 (KB-A1 [4]) was 6.87 µM. For the same molecule, the “Survivors on d90” value ([5]; 5 mg/kg) was 2/10, the “median T/C (survival)” value ([5]; 5 mg/kg) was 125% and the “median T/C (volume) d20” value ([5]; 5 mg/kg) was 44%. The “Survivors on d90” value ([5]; 10 mg/kg) was 3/10, the “median T/C (survival)” value ([5]; 10 mg/kg) was 128% and the “median T/C (volume) d20” value ([5]; 10 mg/kg) was 1%. The “Survivors on d90” value ([5]; 2,5 mg/kg) was 0/10, the “median T/C (survival)” value ([5]; 2,5 mg/kg) was 108% and the “median T/C (volume) d20” value ([5]; 2,5 mg/kg) was 63%. For the same molecule, the “activity against this very resistant model (in words)” value [5] was “far less active”, the IC50 (P388) was 0.02 µM and the “median T/C (tumour volume)” value (colon 38; 15 mg/kg) was 0%. The IC50 (L1210) was 0.0264 µM, the gravimetric variation (leukaemia P388 [10]) was -0.7 g and the “Survivors on d90” value (M5076 sarcoma; 5 mg/kg) was 4/10. The “median T/C (survival)” value (M5076 sarcoma; 5 mg/kg) was 320% and the IC50 (P388/VCR-20 [7]) was 0.34 µM.
